Assay results from patent US9072691B2, “Nutritional supplement for disinhibiting therapy of psychiatric patients” (priority 2012, dated 2015).

Legend:
[1] = Individual components administered separately from the other components; format: in vivo, human; conditions: administered separately from the other components of the invention
Excerpt: Thus, the invention is named “Formula of activity”. The invention offers methods of treating patients who refuse food and can die as a result. […] It is possible that this new effect is produced by a new substance that is formed as a result of the interaction of the components of the invention with each other or with other naturally occurring substances in the body. The components may exert their effect by through the reticular formation in the brain, which is the regulating center of different brain functions. The reticular formation coordinates the interactions between all structures of the brain. It analyzes and corrects the functions of the brain structures and ensures their proper hierarchical dependencies, as well as the readiness of the central nervous system to perform its functions.

[2] = cited from earlier work
[3] = Effect of composition on selected patients and disorders (case reports); format: in vivo, human
Excerpt: The following are several of many patients who were successfully treated by the invention.

## O=S(=O)([O-])CC(S)CS.[Na+] (stereo not shown) [Unithiol]
[1]
  Stimulating or disinhibiting effect / effect on appetite when administered alone: does not lead to a desired stimulating or disinhibiting effect

## O=S(=O)([O-])[O-].[Mg+2] [Magnesium sulfate, magnesium sulfate]
[1]
  Stimulating or disinhibiting effect / effect on appetite when administered alone: does not lead to a desired stimulating or disinhibiting effect

## CCC1(CCC(C)C)C(=O)N=C([O-])NC1=O.[Na+] (stereo not shown) [Barbamyl]
[2]
  Dependency on repeated injections: lead to psychological and physiological dependency on this substance

## CN1C(=O)CN=C(c2ccccc2)c2cc(Cl)ccc21 [valium]
[3]; Patient S, closed head trauma, before the course of the invention, injection
  Sleep: they would fall asleep only after injection of valium

## calcium pantothenate
[1]
  Stimulating or disinhibiting effect / effect on appetite when administered alone: does not lead to a desired stimulating or disinhibiting effect

## CN(C)CCCN1c2ccccc2Sc2ccc(Cl)cc21 [aminazine]
[3]; Patient B, paranoid schizophrenia, after disinhibition, 50 mg intravenously
  Effect after administration: the patient fell asleep

## CN1CCN(CCCN2c3ccccc3Sc3ccc(C(F)(F)F)cc32)CC1 [Stelazine]
[3]; Patient N, postpartum psychosis, 5 mg once per day first week, then 1 mg two times a day
  Clinical outcome: improved regarding their condition and delusional ideas; however they remained apathetic, fatigued and indifferent
